SMILES strings stand for the structures.

The data set can be described thus: gradient 5% acetonitrile 3 min, to 50% in 2 min, to 85% in 15 min, held 3 min, 100 µL/min. The following applies: column: Zorbax Extend-C18 2.1 x 50 mm; eluents: water / acetonitrile, 0.1% formic acid. Summed up: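 Using water and acetonitrile that each contained 0.1% formic acid, mixtures of ~100 pure standards were separated at 100 μL/min on a Zorbax Extend-C18 column (2.1 × 50 mm, 1.8 μm). The HPLC fed a quadrupole time-of-flight mass spectrometer working in positive and negative ionization mode, with dead and dwell volumes of 40 μL and 900 μL. Data were acquired over 3 months. Retention time was read from computationally picked adduct peaks after manual inspection of each.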
For the compound `O=C1CCc2cc(NC(=O)c3ccc(F)c(F)c3)ccc2N1`, the RP-LC retention time was determined as 657 s.
In the case of `Cc1noc(-c2cccc(OC3CN(S(=O)(=O)c4c(C)noc4C)C3)c2)n1`, the RP-LC retention time came out at 964 s.
With `CC(=O)Nc1ccc(NC(=O)C2CC(=O)N(CCc3c[nH]c4ccc(Cl)cc34)C2)cc1` (stereo not given) the figure was 679 s; with `O=C(C1CCN(c2nc3ccc(-c4cccc(F)c4)nc3s2)CC1)N1CCCC1`, 981 s.
On to `CN(C)C(=O)c1cn(C2CN(C(=O)c3ccc(C#N)cc3)C2)nn1`, for which the RP-LC retention time was determined as 624 s.
The same measure for `COCCN(Cc1ccncc1)C(=O)c1ccccc1SC`: 557 s.
With `Cc1nnc(-c2cccnc2N2CCN(C(=O)CC3CCCC3)CC2)o1` the figure was 728 s; with `COc1ccc(OC)c(-n2cc(C(=O)O)c3c2C(C(F)(F)F)CC(=O)N3)c1` (stereo not given), 730 s.
With `O=C(CN1C[C@H]2C[C@H](C1)[C@H]1CCCC(=O)N1C2)NCCC1=CCCCC1` the figure was 627 s.
`Cc1c(C(=O)C(=O)NCCc2ccccc2)c2ccccc2n1C` registered an RP-LC retention time of 887 s.
`CC(C)Cn1cc(S(=O)(=O)N2CCN(c3ccccc3F)CC2)c2cccnc21` gave an RP-LC retention time of 1140 s.
The compound `CCCNC(=O)c1cn(-c2ccc(-c3nc(C(C)C)no3)cn2)cn1` came in with an RP-LC retention time of 847 s.
As to `O=C(Nc1ccccc1F)[C@@H]1COCC(=O)N1Cc1cccs1`, the RP-LC retention time was found to be 741 s.
With `Cc1noc(C)c1S(=O)(=O)N1CCCCC1c1nncn1C` (stereo not given) the figure was 647 s; with `CC(C)Cc1nc(CNC(=O)c2coc(C3CC3)n2)no1`, 808 s; with `CCc1nccn1Cc1noc(-c2ccc(C)c(C)c2)n1`, 672 s.
With `CCOC(=O)C1=C(C)NC2=C(C(=O)C(C(=O)OC)C(C)C2)C1c1ccc(OC)cc1` (stereo not given) the figure was 860 s; with `Cc1cc(S(=O)(=O)N2C[C@@H](F)C[C@H]2C(=O)N2CCCCC2)ccc1Cl`, 885 s.
With `Cc1nc2n(c(=O)c1C)CCN2CC(=O)NCc1cccs1` the figure was 619 s; with `COc1ccc(OCc2nnc3sc(-c4ccc5c(c4)OCCO5)nn23)cc1`, 906 s; with `O=C(Cc1nc(-c2cnccn2)n[nH]1)NCc1ccccc1`, 583 s.
On to `Cc1cc(NCC(O)c2ccc([N+](=O)[O-])cc2)nc(-n2nc(C)cc2C)n1` (stereo not given), for which the RP-LC retention time came out at 592 s.
With `COc1cc(OC)c(NC(=O)CSc2nccnc2N2CCSCC2)cc1Cl` the figure was 1020 s; with `CCOc1ccccc1NC(=O)c1cncc(NS(=O)(=O)c2ccc(OC)cc2)c1`, 798 s; with `CCc1nnc2ccc(-c3noc(Cc4cccc(Cl)c4)n3)cn12`, 896 s.
Compound `Cc1ccc(-c2cn3c4c(=O)n(C)c(=O)n(C)c4nc3n2Cc2ccc(F)cc2)cc1` came in with an RP-LC retention time of 983 s.
With `CC(C)(C)C(=O)Nc1ccc(N2CCC(N3CCCCC3)CC2)cc1C(=O)O` the figure was 615 s; with `Cc1cccc(OCc2nc(-c3ccc4c(c3)ncn4CCN3CCCC3)no2)c1`, 673 s.
The same measure for `COc1cccc(NC(=O)C2CCCN(c3nnc4ccc(Cl)cn34)C2)c1` (stereo not given): 774 s.
Turning to `COc1ccccc1C(=O)N1CCC(Oc2cc(N(C)C)ncn2)C1` (stereo not given), the RP-LC retention time came out at 639 s.
The same measure for `CCCNC(=O)c1ccc(-c2csc(C)n2)cc1`: 754 s; for `Cc1ccc(-c2cc3c4nn(CC(=O)NC5CCCCC5)c(=O)n4ccn3n2)cc1C`: 980 s; for `O=C(O)/C(=C/c1ccccc1)c1ccccc1`: 923 s.
Compound `CCn1nc(C)c(CCNC(=O)c2ccc3c(c2)N(C)C(=O)C2CCCCN32)c1C` (stereo not given) came in with an RP-LC retention time of 661 s.
As to `CC1(C(=O)NCc2ccccc2Cl)Cn2cnc(C(=O)NCc3ccccc3)c2C(=O)N1C1CC1` (stereo not given), the RP-LC retention time was 789 s.
The same measure for `COC(=O)c1sccc1NC(=O)N1CCCC1c1cccc(C)c1` (stereo not given): 1120 s; for `CCN1CCN(c2ncnc3c2cnn3-c2ccccc2Cl)CC1`: 582 s; for `Cc1c(-c2noc(-c3ccc(F)cc3)n2)nnn1Cc1ccc(F)cc1`: 1060 s.
In the case of `Cc1ccc(N2C(=O)C3N=NN(Cc4nc(-c5ccccc5)no4)C3C2=O)cc1C` (stereo not given), the RP-LC retention time came to 1020 s.
The same measure for `COc1cccc(-c2nc(C3CCN(S(=O)(=O)c4ccc(C)c(F)c4)CC3)no2)c1`: 1170 s.
With `CC(C)c1ccc(S(=O)(=O)N2CCCC2c2nc(-c3cccc(Cl)c3)no2)cc1` (stereo not given) the figure was 1350 s; with `O=C(NCc1ccccc1F)c1ccc(CN2CCN(Cc3ccccc3)C(=O)C2=O)cc1`, 770 s.
With `CSCc1csc(NC(=O)C2CCCC2)n1` the figure was 782 s; with `Cc1cccc(-c2nc3cnccn3c2NCCC(=O)NCC(C)C)c1`, 672 s; with `Cc1ccccc1Nc1nc(N)c2c(F)cccc2n1`, 610 s.
`CN(C(=O)CSc1nnc(-c2cn(C)nc2-c2ccccc2)n1C)c1ccccc1`: the RP-LC retention time worked out at 712 s.
With `O=C(Cn1nc2c(Oc3ccc(Cl)cc3)nccn2c1=O)NC1CCCCC1` the figure was 881 s; with `CCN1CCC2(CC1)N=C(c1ccc(Cl)cc1)CC(c1cccc(OC)c1O)N2` (stereo not given), 621 s.
The same measure for `Cc1ccc(-c2nc3cnccn3c2Nc2cc(C)cc(C)c2)cc1`: 1040 s.
As for `CCOC(=O)c1cccc(NC(=O)Cc2csc3nc(-c4ccc(C)c(C)c4)cn23)c1`, the RP-LC retention time came out at 929 s.
Take `O=C(Cc1cccs1)N(c1ccc(Br)cc1)C1C=CS(=O)(=O)C1` (stereo not given): the RP-LC retention time came out at 833 s.
`O=C(CCc1cc(Cl)no1)N1CCC(c2nc(C3CCOCC3)no2)C1` (stereo not given) gave an RP-LC retention time of 701 s.
In turn, `COc1ccc(OC)c(CNC(=O)Cc2nnc(-c3ccccn3)o2)c1` displayed an RP-LC retention time of 687 s.
With `O=C(Nc1cccc(C(F)(F)F)c1)NC1CCN(c2ccc(F)cc2)C1=O` (stereo not given) the figure was 923 s; with `COc1ccc(Cl)cc1NC(=O)Cn1cnc2nc3c(cc2c1=O)CCCC3`, 798 s.
The same measure for `c1ccc(CCc2nc(-c3ccc4c(c3)nnn4CCN3CCOCC3)no2)cc1`: 687 s; for `CC(C)c1noc(-c2cc(=O)n(CC(=O)Nc3ccc(F)cc3)c3ccccc23)n1`: 995 s.
The same measure for `CCCN1CCN(S(=O)(=O)c2cc(-c3[nH]ncc3C(=O)N(C)C)oc2C)CC1`: 566 s; for `Cc1ccc(S(=O)(=O)N2CCC(n3c(-c4ccco4)nc4cccnc43)C2)cc1Cl` (stereo not given): 999 s; for `CCn1ccc2oc(C)c(C(=O)N3CCN(c4cccc(Cl)c4)CC3)c2c1=O`: 896 s.
Take `Cc1ccc(Oc2cccc(C(=O)Nc3ccc(-c4cn5ccccc5n4)cc3)c2)nn1`: the RP-LC retention time came out at 568 s.
Consider `O=C(Nc1cnc(N2CCCC2)nc1)c1ccc(Br)cc1`, for which the RP-LC retention time came to 796 s.
Compound `Cc1ccc2c(c1)NC(=O)C(C(=O)NC1CCCCCCC1)O2` (stereo not given) registered an RP-LC retention time of 895 s.
The same measure for `CCOc1ccccc1CNC(=O)C1CCCN(c2nn3c(=O)c4c(nc3s2)CCCC4)C1` (stereo not given): 831 s; for `Cc1ccc(C(C)C)cc1NC(=O)Nc1ccc([N+](=O)[O-])cc1`: 1160 s.
In turn, `O=C(Nc1cccc(Br)c1)N1CCC(N2CCN(Cc3ccccc3)C2=O)CC1` showed an RP-LC retention time of 847 s.
`O=S(=O)(c1cc(-c2nnc(C3CCCC3)o2)co1)N1CCCCCC1` returned an RP-LC retention time of 1050 s.
On to `COc1ccc(NC(=O)c2sc(-c3cn(C(C)C)c4ncccc34)nc2C)cc1`, for which the RP-LC retention time amounted to 902 s.
Regarding `COc1ccccc1NC(=O)N1CCC(CNC(=O)CCSc2ccccc2)CC1`, the RP-LC retention time was determined as 771 s.
Take `CN1C(=O)C(CC(=O)N2CCCCC2)=C2CCCCC21` (stereo not given): the RP-LC retention time was found to be 677 s.
`CC(C)c1ccc(CNc2nc3ccncc3n(Cc3ccccc3)c2=O)cc1` showed an RP-LC retention time of 842 s.
In turn, `COc1cccc(CNC2=NCCNC23CCN(S(=O)(=O)c2ccc(C)cc2C)CC3)c1` returned an RP-LC retention time of 747 s.
With `COc1ccc(C2CC(=O)N(c3ccc(F)cc3F)C(=O)C2)cc1OC` the figure was 870 s; with `O=C(Nc1cccc(OCc2nnc(-c3ccc(F)cc3)o2)c1)C1CC(=O)N(c2ccccc2)C1` (stereo not given), 895 s.
With `C=CCn1nc2ccc(S(=O)(=O)N3CCCC3)cn2c1=O` the figure was 706 s; with `CCn1nc(C)c(CCN(C)C(=O)Cn2nc3n(c2=O)CCC(N)CC3)c1C` (stereo not given), 515 s; with `CCn1cc(CCNS(=O)(=O)c2cccc(C#N)c2)c2cccnc21`, 733 s.
The compound `Cc1ccc(NC(=O)Cn2nc3cc(-c4ccccc4)nc(C)n3c2=O)c(C)c1` had an RP-LC retention time of 985 s.
`Cc1ccc(-c2noc(CSc3nccn3-c3ccc(C)cc3)n2)cc1` displayed an RP-LC retention time of 1020 s.
`Cc1ccsc1C(=O)Nc1ccc(OCc2nnc(-c3ccc(Cl)cc3)o2)cc1` registered an RP-LC retention time of 1010 s.

Source of the values: the METLIN SMRT retention time set (Domingo-Almenara et al. 2019).
